Literature values as cited in article PMC9285603, “Flavan‐3‐ol Microbial Metabolites Modulate Proteolysis in Neuronal Cells Reducing Amyloid‐beta (1‐42) Levels” (Molecular Nutrition & Food Research, 2021).

Assays:
[1] = system: human neuroblastoma SH‐SY5Y cells; design: method as in PMID 28891114; details: cited from earlier work
[2] = design: method as in PMID 28891114; details: compared with parental compound EGCG; cited from earlier work
[3] = system: brown adipocytes; design: method as in PMID 28276197; details: cited from earlier work

Structure (SMILES) | neurites outgrowth and elongation [1] | BBB permeability [2] | protection from increased production of reactive oxygen species [3]
O=C1CCC(Cc2cc(O)cc(O)c2)O1 (stereo not drawn) [5‐(3ʹ,5ʹ‐dihydroxyphenyl)‐γ‐valerolactone] | significantly induced | slightly higher | –
O=C1CC[C@H](Cc2ccc(O)c(O)c2)O1 [(R)‐5‐(3ʹ,4ʹ‐dihydroxyphenyl)‐γ‐valerolactone] | – | – | protect brown adipocytes
